These molecules were tested against CDK6/cyclin D1 (Homo sapiens, UniProt Q00534).
Chain of CDK6/cyclin D1 (P24385 whole entry): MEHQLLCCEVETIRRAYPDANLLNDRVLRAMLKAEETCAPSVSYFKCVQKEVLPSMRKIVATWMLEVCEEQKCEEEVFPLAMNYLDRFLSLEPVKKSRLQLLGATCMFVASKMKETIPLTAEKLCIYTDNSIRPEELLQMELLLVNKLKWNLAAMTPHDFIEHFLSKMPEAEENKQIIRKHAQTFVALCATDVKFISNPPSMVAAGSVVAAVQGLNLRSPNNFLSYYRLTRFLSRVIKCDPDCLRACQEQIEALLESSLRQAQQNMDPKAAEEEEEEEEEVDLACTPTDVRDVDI
Chain of CDK6/cyclin D1 (Q00534 whole entry): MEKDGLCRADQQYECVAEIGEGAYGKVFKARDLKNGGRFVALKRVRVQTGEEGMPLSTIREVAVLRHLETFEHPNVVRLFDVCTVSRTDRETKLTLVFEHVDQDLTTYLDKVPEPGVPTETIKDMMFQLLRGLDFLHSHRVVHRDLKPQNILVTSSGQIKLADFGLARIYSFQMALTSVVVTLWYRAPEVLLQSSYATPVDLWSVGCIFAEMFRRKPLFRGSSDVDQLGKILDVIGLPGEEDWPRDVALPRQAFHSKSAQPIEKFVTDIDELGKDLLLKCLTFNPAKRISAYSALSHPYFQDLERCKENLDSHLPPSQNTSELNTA

Ki [nM]	SMILES
0.88	C[C@@]1(O)CCC[C@H]1n1c(=O)ccc2cnc(NC3CCN(S(=O)(=O)CC4CC4)CC3)nc21

Each molecule was assayed against Cyclin-dependent kinase 2/cyclin E1 (Homo sapiens, UniProt P24941).
Description: Inhibition of recombinant full length wild-type phosphorylated CDK2/Cyclin E1 (unknown origin) expressed in baculovirus expression system assessed as reduction in production of ADP using 5-FAM-QSPKKG-CONH2 peptide as substrate preincubated with enzyme for 15 mins followed by further incubation with ATP for 45 mins by fluorescence-based microfluidic mobility shift assay

Ki [nM]	SMILES
0.16	C[C@@]1(O)CCC[C@H]1n1c(=O)c(CC#N)cc2cnc(NC3CCN(S(C)(=O)=O)CC3)nc21
0.25	C[C@@]1(O)CCC[C@H]1n1c(=O)ccc2cnc(NC3CCN(S(=O)(=O)CC4CC4)CC3)nc21
0.12	C[C@@H]1[C@H](O)CC[C@H]1n1c(=O)ccc2cnc(NC3CCN(S(C)(=O)=O)CC3)nc21
0.28	CNS(=O)(=O)N1CCC(Nc2ncc3ccc(=O)n([C@@H]4CCC[C@@]4(C)O)c3n2)CC1
7.32	C[C@]1(O)CCC[C@@H]1n1c(=O)ccc2cnc(NC3CCN(S(=O)(=O)c4nccs4)CC3)nc21
0.1	C[C@@]1(O)CCC[C@H]1n1c(=O)ccc2cnc(NC3CCN(S(N)(=O)=O)CC3)nc21
0.2	CNS(=O)(=O)N1CCC(Nc2ncc3cc(Cl)c(=O)n([C@@H]4CCC[C@@]4(C)O)c3n2)CC1
1.73	CS(=O)(=O)N1CCC(Nc2ncc3cc(CC(N)=O)c(=O)n([C@@H]4CCC[C@@H](O)C4)c3n2)CC1

— ChEMBL document CHEMBL4673400, “Potential of Cyclin-Dependent Kinase Inhibitors as Cancer Therapy” (ACS Med Chem Lett, 2021)
